US20230339970A1, “CASEIN KINASE 1 DELTA MODULATORS” (priority 2020, published 2023)

Tests used:
human CSNK1D = target: T1, human CSNK1D (Homo sapiens, UniProt P48730); assay: Whole Cell nBRET CSNK1D Binding Assay; settings: living CHO cells stably expressing human CSNK1D tagged with nanoluciferase; NanoBret tracer 130 nM; 2 hours at 37 C
T1 construct: expressed in transfected cells

[1] = target: T2, human recombinant GST cleaved CSNK1D (Homo sapiens, UniProt P48730); assay: Purified Enzyme Assay (ADP-Glo CSNK1D Kinase Assay); type: biochemical; settings: 2 nM CSNK1D; peptide substrate 150 μM; ATP 20 μM; 45 minutes at room temperature
T2 construct: GST (cleaved yes); purchased University of Dundee clone DU 19064
Method in brief: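 Percent activity derived from ADP-Glo quantification of ADP produced. Reactions: compound dose-response with human recombinant GST-cleaved CSNK1D, ATP and substrate peptide PLSRTL-pS-VASLPGL, incubated 45 min at room temperature.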

T1 sequence (P48730 whole entry): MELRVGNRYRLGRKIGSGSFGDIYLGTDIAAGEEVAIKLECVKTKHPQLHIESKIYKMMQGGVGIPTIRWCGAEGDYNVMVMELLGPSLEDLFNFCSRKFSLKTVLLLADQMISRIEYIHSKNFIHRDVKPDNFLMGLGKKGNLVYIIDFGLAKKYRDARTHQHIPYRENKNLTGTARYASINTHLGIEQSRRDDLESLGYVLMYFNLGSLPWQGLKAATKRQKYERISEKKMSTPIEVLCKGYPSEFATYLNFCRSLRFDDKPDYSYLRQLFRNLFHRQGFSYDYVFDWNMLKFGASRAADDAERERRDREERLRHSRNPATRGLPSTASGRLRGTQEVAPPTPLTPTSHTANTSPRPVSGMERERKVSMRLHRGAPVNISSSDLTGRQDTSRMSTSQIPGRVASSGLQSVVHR
T2 sequence (P48730 whole entry): as above

| IC50 (human CSNK1D) [nM] | IC50 [1] [nM] | SMILES |
| --- | --- | --- |
| > 10000 | 293 | Cc1n[nH]c2nc(C(F)F)cc(-c3c(-c4ccc(F)cc4)nn4c3COC(C(F)(F)F)C4)c12 (single isomer, unassigned) [Example 374, (*S)-3-[6-(Difluoromethyl)-3-methyl-1H-pyrazolo[3,4-b]pyridin-4-yl]-2-(4-fluorophenyl)-6-(trifluoromethyl)-6,7-dihydro-4H-pyrazolo[5,1-c][1,4]oxazine] |
| 1320 | 97 | COCC1(F)CCc2c(-c3c(F)c(C)nc4[nH]ncc34)c(-c3ccc(F)cn3)nn2C1 (single isomer, unassigned) [Example 309, (*R)-5-Fluoro-4-[6-fluoro-2-(5-fluoro-2-pyridyl)-6-(methoxymethyl)-5,7-dihydro-4H-pyrazolo[1,5-a]pyridin-3-yl]-6-methyl-1H-pyrazolo[3,4-b]pyridine] |
| > 10000 | 451 | Cc1cn2nccc2cc1-c1c(-c2ccc(F)cn2)nn2c1COC(C)(C)C2 [Example 382, 2-(5-Fluoro-2-pyridyl)-6,6-dimethyl-3-(6-methylpyrazolo[1,5-a]pyridin-5-yl)-4,7-dihydropyrazolo[5,1-c][1,4]oxazine] |
| 49 | 5 | Fc1ccc(-c2nn3c(c2-c2c(F)cnc4[nH]ncc24)COC2(C3)CC2(F)F)nc1 (single isomer, unassigned) [Example 435, (*R)-1′. 1′-Difluoro-3-(5-fluoro-1H-pyrazolo[3,4-b]pyridin-4-yl)-2-(5-fluoro-2-pyridyl)spiro[4,7-dihydropyrazolo[5,1-c][1,4]oxazine-6,2′-cyclopropane]] |
| 2480 | 46 | Cc1nc(-c2c(-c3ccc(F)cc3)nn3c2COC(C(F)(F)F)C3)c2cn[nH]c2n1 (single isomer, unassigned) [Example 377, (*S)-2-(4-Fluorophenyl)-3-(6-methyl-1H-pyrazolo[3,4-d]pyrimidin-4-yl)-6-(trifluoromethyl)-6,7-dihydro-4H-pyrazolo[5,1-c][1,4]oxazine] |
| 760 | 30 | CC1(C)Cn2nc(-c3ccc(F)cn3)c(-c3ccn4nccc4n3)c2CO1 [Example 387, 2-(5-Fluoropyridin-2-yl)-6,6-dimethyl-3-(pyrazolo[1,5-a]pyrimidin-5-yl)-6,7-dihydro-4H-pyrazolo[5,1-c][1,4]oxazine] |
| 14 | 4 | Fc1ccc(-c2nn3c(c2-c2ccnc4[nH]ncc24)CCC(F)(COC(F)F)C3)nc1 (single isomer, unassigned) [Example 314, (*S)-4-(6-((Difluoromethoxy)methyl)-6-fluoro-2-(5-fluoropyridin-2-yl)-4,5,6,7-tetrahydropyrazolo[1,5-a]pyridin-3-yl)-1H-pyrazolo[3,4-b]pyridine] |
| 20 | 1 | Cc1cc(-c2c(-c3ccc(F)cn3)nn3c2OCC2(CC2)C3)c2cn[nH]c2n1 [Example 462, 2′-(5-Fluoropyridin-2-yl)-3′-(6-methyl-1H-pyrazolo[3,4-b]pyridin-4-yl)-5′H,7′H-spiro[cyclopropane-1,6′-pyrazolo[5,1-b][1,3]oxazine]] |
| 24 | 2 | CC(=O)Nc1cc(-c2c(-c3ccc(F)cn3)nn3c2CC[C@@H]2C[C@@H]23)ccn1 (stereo in doubt) [Example 341, N-(4-((5a*R,6a*S)-2-(5-Fluoropyridin-2-yl)-5,5a,6,6a-tetrahydro-4H-cyclopropa[e]pyrazolo[1,5-a]pyridin-3-yl)pyridin-2-yl)acetamide] |
| 70 | 8 | CC1(C)COc2c(-c3ccn4nccc4c3)c(-c3ccc(F)cn3)nn2C1 [Example 449, 2-(5-Fluoropyridin-2-yl)-6,6-dimethyl-3-(pyrazolo[1,5-a]pyridin-5-yl)-6,7-dihydro-5H-pyrazolo[5,1-b][1,3]oxazine] |
| 210 | 10 | CCC(=O)Nc1cc(-c2c(-c3ccc(F)cn3)nn3c2OCCC3C)ccn1 (stereo not drawn) [Example 445, N-(4-(2-(5-Fluoropyridin-2-yl)-7-methyl-6,7-dihydro-5H-pyrazolo[5,1-b][1,3]oxazin-3-yl)pyridin-2-yl)propionamide] |
| 18 | 2 | Cc1nc(-c2c(-c3ccc(F)cc3)nn3c2COC(C)(C)C3)c2cn[nH]c2n1 [Example 394, 2-(4-Fluorophenyl)-6,6-dimethyl-3-(6-methyl-1H-pyrazolo[3,4-d]pyrimidin-4-yl)-4,7-dihydropyrazolo[5,1-c][1,4]oxazine] |
| > 10000 | 1670 | Cc1n[nH]c2ncc(F)c(-c3c(-c4ccc(F)cn4)nn4c3CC[C@H]3[C@@H]4C3(F)F)c12 (single isomer, unassigned) [Example 359, (5a*S,6a*R)-6,6-Difluoro-3-(5-fluoro-3-methyl-1H-pyrazolo[3,4-b]pyridin-4-yl)-2-(5-fluoropyridin-2-yl)-5,5a,6,6a-tetrahydro-4H-cyclopropa[e]pyrazolo[1,5-a]pyridine] |
| 39 | 5 | Fc1ccc(-c2nn3c(c2-c2ccnc4[nH]ncc24)CC[C@@H]2C[C@@H]23)cc1 (stereo in doubt) [Example 340, (5a*R,6a*S)-2-(4-Fluorophenyl)-3-(1H-pyrazolo[3,4-b]pyridin-4-yl)-5,5a,6,6a-tetrahydro-4H-cyclopropa[e]pyrazolo[1,5-a]pyridine] |

Second part, the molecule before the results:

| SMILES | IC50 (human CSNK1D) [nM] | IC50 [1] [nM] |
| --- | --- | --- |
| Fc1ccc(-c2nn3c(c2-c2ccnc4[nH]ccc24)CCC3)nc1 [Example 6, 4-(2-(5-Fluoropyridin-2-yl)-5,6-dihydro-4H-pyrrolo[1,2-b]pyrazol-3-yl)-1H-pyrrolo[2,3-b]pyridine] | 35 | 1 |
| Fc1ccc(-c2nn3c(c2-c2ccnc4[nH]ncc24)C[C@H](F)C3)cc1 [Example 11, (S)-4-(5-Fluoro-2-(4-fluorophenyl)-5,6-dihydro-4H-pyrrolo[1,2-b]pyrazol-3-yl)-1H-pyrazolo[3,4-b]pyridine] | 4 | 1 |
| Cc1cc(-c2c(-c3ccc(F)cn3)nn3c2CCC3)c2cn[nH]c2n1 [Example 8, 4-[2-(5-Fluoro-2-pyridyl)-5,6-dihydro-4H-pyrrolo[1,2-b]pyrazol-3-yl]-6-methyl-1H-pyrazolo[3,4-b]pyridine] | 87 | 4 |
| Cc1cc(-c2c(-c3ccc(F)cn3)nn3c2C[C@H]2C[C@H]23)c2cn[nH]c2n1 [Example 27, (4aR,5aR)-2-(5-Fluoropyridin-2-yl)-3-(6-methyl-1H-pyrazolo[3,4-b]pyridin-4-yl)-4,4a,5,5a-tetrahydrocyclopropa[4,5]pyrrolo[1,2-b]pyrazole] | 434 | 41 |
| Cc1cc(-c2c(-c3ccc(F)cn3)nn3c2C[C@@]2(C3)CC2(F)F)c2c(Cl)n[nH]c2n1 (single isomer, unassigned) [Example 262, (*S)-3′-(3-Chloro-6-methyl-1H-pyrazolo[3,4-b]pyridin-4-yl)-2,2-difluoro-2′-(5-fluoropyridin-2-yl)-4′H,6′H-spiro[cyclopropane-1,5′-pyrrolo[1,2-b]pyrazole]] | 15 | 5 |
| CC1(C)Cc2c(-c3cc(C(F)F)nc4[nH]ncc34)c(-c3ccc(F)cn3)nn2C1 [Example 239, 6-(Difluoromethyl)-4-[2-(5-fluoro-2-pyridyl)-5,5-dimethyl-4,6-dihydropyrrolo[1,2-b]pyrazol-3-yl]-1H-pyrazolo[3,4-b]pyridine] | 115 | 4 |
| CC1(C)Cn2nc(-c3ccc(F)cn3)c(-c3cc(C4CC4)nc4[nH]ncc34)c2CO1 [Example 155, 3-(6-Cyclopropyl-1H-pyrazolo[3,4-b]pyridin-4-yl)-2-(5-fluoropyridin-2-yl)-6,6-dimethyl-6,7-dihydro-4H-pyrazolo[5,1-c][1,4]oxazine] | 172 | 8 |
| Fc1ccc(-c2nn3c(c2-c2ccncc2)COCC3)nc1 [Example 74, 2-(5-Fluoro-2-pyridyl)-3-(4-pyridyl)-6,7-dihydro-4H-pyrazolo[5,1-c][1,4]oxazine] | 2410 | 205 |
| Cc1cc(-c2c(-c3ccc(F)cc3)nn3c2COC(C)(C)C3)c2cn[nH]c2n1 [Example 145, 2-(4-Fluorophenyl)-6,6-dimethyl-3-(6-methyl-1H-pyrazolo[3,4-b]pyridin-4-yl)-6,7-dihydro-4H-pyrazolo[5,1-c][1,4]oxazine] | 4 | 1 |
| Cc1cc(-c2c(-c3ccc(F)cn3)nn3c2CC2(C3)CC2(F)F)c2cn[nH]c2n1 (single isomer, unassigned) [Example 261, (*R)-1′,1′-Difluoro-2-(5-fluoro-2-pyridyl)-3-(6-methyl-1H-pyrazolo[3,4-b]pyridin-4-yl)spiro[4,6-dihydropyrrolo[1,2-b]pyrazole-5,2′-cyclopropane]] | 2670 | 63 |
| Cc1cc(-c2c(-c3ccc(Cl)cc3)nn3c2COCC3)c2cn[nH]c2n1 [Example 68, 2-(4-Chlorophenyl)-3-(6-methyl-1H-pyrazolo[3,4-b]pyridin-4-yl)-6,7-dihydro-4H-pyrazolo[5,1-c][1,4]oxazine] | 206 | 27 |
| Cc1cc(-c2c(-c3ccc(F)cc3)nn3c2CCC3)c2cn[nH]c2n1 [Example 5, 4-(2-(4-Fluorophenyl)-5,6-dihydro-4H-pyrrolo[1,2-b]pyrazol-3-yl)-6-methyl-1H-pyrazolo[3,4-b]pyridine] | 22 | 1 |
| CC1(C)COCc2c(-c3ccnc4[nH]ncc34)c(-c3ccc(F)cc3)nn21 [Example 120, 2-(4-Fluorophenyl)-7,7-dimethyl-3-(1H-pyrazolo[3,4-b]pyridin-4-yl)-4,6-dihydropyrazolo[5,1-c][1,4]oxazine] | 201 | 13 |
